According to article PMC4078991 (Nature, 2014):
Values belong to the compound of their own block, whether it stands above or below them.

Tests used:
[1] = tested on: apoptotic Jurkat cells; test: Formation of apoptotic bodies from apoptotic Jurkat cells; assay type: cell-based; conditions: for formation of apoptotic bodies: Jurkat cells, anti-Fas induced apoptosis; for formation of apoptotic bodies in Jurkat cells expressing PANX1 DN mutant: inhibitors of blebbing
[2] = molecular target: T1, PANX1 (Homo sapiens, UniProt Q96RD7); test: ATP release from apoptotic cells; assay type: cell-based; conditions: apoptotic Jurkat cells
[3] = molecular target: T1, PANX1; test: TO-PRO-3 uptake by apoptotic Jurkat cells; assay type: cell-based; conditions: for inhibition of TO-PRO-3 uptake (PANX1-dependent dye uptake) by apoptotic cells: anti-Fas, compound present during apoptosis induction
[4] = cited from earlier work
[5] = molecular target: T1, PANX1; assay type: cell-based; conditions: Jurkat cells 2h anti-Fas, trovafloxacin 20 μM; for effect on outward current of apoptotic cells: at +80mV; for effect on inward current of apoptotic cells: at -50mV
[6] = tested on: apoptotic thymocytes; test: In vivo model of thymic apoptosis; parameters: species or system mouse; conditions: wild-type mice, administered with dexamethasone
[7] = molecular target: T2, mouse Panx2 (Mus musculus, UniProt Q6IMP4); test: Whole-cell patch-clamp of Panx2 current in HEK293T cells; assay type: cell-based; conditions: 20 μM
T2 sequence (Q6IMP4 1-677): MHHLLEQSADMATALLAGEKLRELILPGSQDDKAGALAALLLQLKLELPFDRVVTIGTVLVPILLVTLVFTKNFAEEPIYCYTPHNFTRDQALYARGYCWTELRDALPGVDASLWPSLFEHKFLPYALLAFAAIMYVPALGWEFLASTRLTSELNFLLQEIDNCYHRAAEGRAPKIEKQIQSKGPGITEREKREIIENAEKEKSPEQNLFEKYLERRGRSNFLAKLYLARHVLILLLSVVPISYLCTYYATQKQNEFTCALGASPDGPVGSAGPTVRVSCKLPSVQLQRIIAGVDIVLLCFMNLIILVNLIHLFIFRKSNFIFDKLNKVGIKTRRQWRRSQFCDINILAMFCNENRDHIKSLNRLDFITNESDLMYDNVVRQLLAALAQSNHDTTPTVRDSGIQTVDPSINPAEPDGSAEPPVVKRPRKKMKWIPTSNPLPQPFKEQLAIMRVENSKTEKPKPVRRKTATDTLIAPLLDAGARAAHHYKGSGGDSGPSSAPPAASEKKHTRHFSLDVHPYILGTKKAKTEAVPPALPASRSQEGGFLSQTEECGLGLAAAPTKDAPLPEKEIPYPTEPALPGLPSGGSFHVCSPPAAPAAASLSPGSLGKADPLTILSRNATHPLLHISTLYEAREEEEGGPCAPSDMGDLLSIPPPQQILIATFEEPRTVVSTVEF

[8] = tested on: caspase 3/7; test: Caspase 3/7 activation in Jurkat cells undergoing apoptosis; assay type: cell-based; conditions: trovafloxacin 40 μM
[9] = cited from earlier work; remark: listed apart in the source
[10] = molecular target: connexin 43 (Cx43) (Homo sapiens, UniProt P17302); test: Whole-cell patch-clamp of Cx43 current in HEK293T cells; assay type: cell-based; conditions: 20 μM
[11] = tested on: Escherichia coli; test: Bacterial growth assay; assay type: cell-based; conditions: 6h incubation, O.D. at 600 nm
[12] = tested on: apoptotic Jurkat cells; test: Time-lapse microscopy of apoptotic cell morphology; assay type: cell-based; conditions: time-lapse imaging
[13] = tested on: PANX1-GFP; test: Proteolytic cleavage of PANX1-GFP during apoptosis; assay type: cell-based; conditions: 500 μM
[14] = tested on: primary thymocytes; assay type: cell-based, mouse; conditions: 10 μM

T1 sequence (Q96RD7 1-379 limits assumed): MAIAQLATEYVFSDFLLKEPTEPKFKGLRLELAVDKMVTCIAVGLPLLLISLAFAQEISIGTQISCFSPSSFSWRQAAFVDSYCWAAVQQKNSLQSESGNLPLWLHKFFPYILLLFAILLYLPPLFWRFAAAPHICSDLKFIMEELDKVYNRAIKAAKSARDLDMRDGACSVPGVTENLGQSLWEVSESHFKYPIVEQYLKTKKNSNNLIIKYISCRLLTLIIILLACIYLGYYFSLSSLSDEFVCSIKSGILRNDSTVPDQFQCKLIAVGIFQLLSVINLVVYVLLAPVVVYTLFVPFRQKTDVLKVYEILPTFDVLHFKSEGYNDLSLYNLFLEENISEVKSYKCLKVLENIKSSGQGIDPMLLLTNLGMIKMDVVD
Chain of connexin 43 (Cx43) (P17302 2-382 limits assumed, species assumed): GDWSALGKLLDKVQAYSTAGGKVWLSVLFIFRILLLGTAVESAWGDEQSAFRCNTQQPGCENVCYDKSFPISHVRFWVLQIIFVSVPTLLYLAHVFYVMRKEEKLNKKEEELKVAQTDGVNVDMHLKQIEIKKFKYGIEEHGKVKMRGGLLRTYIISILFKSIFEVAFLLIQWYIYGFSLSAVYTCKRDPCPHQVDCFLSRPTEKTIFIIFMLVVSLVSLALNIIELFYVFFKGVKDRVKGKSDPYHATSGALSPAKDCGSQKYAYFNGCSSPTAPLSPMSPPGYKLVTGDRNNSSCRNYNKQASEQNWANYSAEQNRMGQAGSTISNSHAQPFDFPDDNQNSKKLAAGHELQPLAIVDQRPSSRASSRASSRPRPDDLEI

Compound: Cc1ccc(C(=O)Nc2ccc(S(=O)(=O)O)c3cc(S(=O)(=O)O)cc(S(=O)(=O)O)c23)cc1NC(=O)c1cccc(NC(=O)Nc2cccc(C(=O)Nc3cc(C(=O)Nc4ccc(S(=O)(=O)O)c5cc(S(=O)(=O)O)cc(S(=O)(=O)O)c45)ccc3C)c2)c1 [suramin]
formation of apoptotic bodies [1]: did not enhance formation of apoptotic bodies

inhibition of ATP release from apoptotic cells [2]: partially inhibited ATP release
Compound: NC1CCN(c2nc3c(cc2F)c(=O)c(C(=O)O)cn3-c2ccc(F)cc2F)C1 (centres unmarked) [tosulfoxacin, tosufloxacin]
formation of apoptotic bodies [1]: promoted the formation of apoptotic bodies
inhibition of TO-PRO-3 uptake (PANX1-dependent dye uptake) by apoptotic cells [3]: partially inhibited ATP release and TO-PRO-3 uptake

inhibition of ATP release from apoptotic cells [2]: inhibited ATP release
effect on outward current of apoptotic cells [5]: minimal effect on outward current
effect on inward current of apoptotic cells [5]: rapidly inhibited the inward current
inhibition of PANX2 current [7]: did not inhibit
inhibition of TO-PRO-3 uptake (PANX1-dependent dye uptake) by apoptotic cells [3]: potent inhibitor of TO-PRO-3 uptake
TO-PRO-3 uptake after acute treatment of cells already undergoing apoptosis ([3]; compound added post induction of apoptosis, 20 min): acutely blocked TO-PRO-3 uptake
inhibition of connexin 43 gap junction current [10]: did not inhibit
Compound: N[C@@H]1[C@H]2CN(c3nc4c(cc3F)c(=O)c(C(=O)O)cn4-c3ccc(F)cc3F)C[C@@H]12 [trovafloxacin]
side effects linked to use in patients [4]: serious adverse side effects
fragmentation of apoptotic thymocytes in vivo (SSC high particles) [6]: promoted the fragmentation of the apoptotic thymocytes
formation of apoptotic bodies [1]: promoted the formation of apoptotic bodies in a concentration-dependent manner
caspase 3/7 activation during apoptosis [8]: did not inhibit caspase 3/7 activation
concentrations normally achieved in human plasma [9]: 2000 to 10000 nM
Escherichia coli growth [11]: inhibit bacterial growth
formation of apoptopodia (string-like structures) by apoptotic cells [12]: produced long string-like structures

effect on outward current of apoptotic cells [5]: blocked both inward and outward currents
effect on inward current of apoptotic cells [5]: blocked both inward and outward currents
Compound: CC1(C)[C@@H](OC(=O)CCC(=O)O)CC[C@]2(C)[C@H]3C(=O)C=C4[C@@H]5C[C@@](C)(C(=O)O)CC[C@]5(C)CC[C@@]4(C)[C@]3(C)CC[C@@H]12 [CBX, carbenoxolone]
formation of apoptotic bodies [1]: promoted formation of apoptotic bodies
proteolytic cleavage of PANX1-GFP during apoptosis [13]: not inhibited
formation of apoptopodia (string-like structures) by apoptotic cells [12]: produced long string-like structures

inhibition of TO-PRO-3 uptake (PANX1-dependent dye uptake) by apoptotic cells [3]: did not block PANX1-dependent dye uptake
Compound: C[C@H]1COc2c(N3CCN(C)CC3)c(F)cc3c(=O)c(C(=O)O)cn1c23 [levofloxacin]
Escherichia coli growth [11]: inhibit bacterial growth

Compound: Cc1ccc2c(c1)C(=O)C1(O)CCN(c3ccccc3)C1=N2 (centres unmarked) [blebbistatin]
formation of apoptotic bodies in Jurkat cells expressing PANX1 DN mutant [1]: reduce the formation of apoptotic bodies

Compound: C=C1[C@@H](C)[C@H]2[C@H](Cc3ccccc3)NC(=O)[C@]23[C@H](OC(C)=O)/C=C/[C@@](C)(O)C(=O)[C@@H](C)C/C=C/[C@H]3[C@@H]1O [cytochalasin D]
formation of apoptotic bodies in Jurkat cells expressing PANX1 DN mutant [1]: reduce the formation of apoptotic bodies

Compound: apyrase
formation of apoptotic bodies [1]: did not promote the formation of apoptotic bodies

inhibition of ATP release from apoptotic cells [2]: partially inhibited ATP release
Compound: CN1CCN(c2cc3c(cc2F)c(=O)c(C(=O)O)cn3-c2ccc(F)cc2)CC1 [difloxacin]
formation of apoptotic bodies [1]: promoted the formation of apoptotic bodies
inhibition of TO-PRO-3 uptake (PANX1-dependent dye uptake) by apoptotic cells [3]: partially inhibited ATP release and TO-PRO-3 uptake

Compound: C[C@@H](N)[C@H]1CC[C@H](C(=O)Nc2ccncc2)CC1 [Y-27632]
enhanced formation of apoptotic bodies in apoptotic thymocytes from mice with PANX1 deficiency [14]: blunted
formation of apoptotic bodies in Jurkat cells expressing PANX1 DN mutant [1]: reduce the formation of apoptotic bodies

Compound: O=C(O)c1cn(C2CC2)c2cc(N3CCNCC3)c(F)cc2c1=O [ciprofloxacin]
Escherichia coli growth [11]: inhibit bacterial growth

Compound: CCCN(CCC)S(=O)(=O)c1ccc(C(=O)O)cc1 [probenecid]
formation of apoptotic bodies [1]: promoted formation of apoptotic bodies
